Assay results from publication PMC12203428, “Discovery of Clonixeril as a Sub-Femtomolar Modulator of the Human STING Receptor” (ACS Central Science, 2025).
“Also recorded” adds a separate entry of the source. Like-named read-outs stand apart in the source and are kept apart here.

Legend:
[1] = system: p-hSTING puncta in HEK293 cells; assay: HEK293 immunofluorescence of p-hSTING; format: cell-based, human
Method: STING undergoes condensed cis-oligomerization as part of its signal transduction pathway and punctate structure formation of p-hSTING in the perinuclear region is indicative of hSTING oligomerization. We had speculated that CXL might affect hSTING oligomerization. […] HEK293 cells were treated with either 10 aM or 1 pM CXL for 1 h followed by 2 μM 2′,3′-cGAMP for 90 min. Cells treated with vehicle control for 1 h and then 2 μM of 2′,3′-cGAMP for 90 min were used as a positive control. At a 1 pM concentration of CXL, both p-hSTING and punctate structure formation were diminished.
HEK293 cells were seeded into four-chambered slides (5,000 cells/well.) 36 h later, sample 1 was first treated with vehicle control for 1 h and then transfected with 2 μM 2′,3′-cGAMP (InvivoGen) using Escort IV transfection reagent (Sigma Aldrich) for 1 h and 30 min. Samples 2 and 3 were first transfected with 10 aM and 1 pM CXL, respectively, for 1 h, followed by 2 μM 2′,3′-cGAMP for 1 h and 30 min. […] DMSO concentration was kept constant across all treatment groups. Cells were fixed with 4% paraformaldehyde for 15 min and immunostained with p-STING antibody at 4 °C overnight with light agitation. The slides were incubated with Alexa 594 rabbit secondary antibody for 1 h at RT. Subsequently, the slides were stained with Phalloidin conjugated to FITC (488) for 30 min at RT, mounted with solution containing 4′,6′-diamidino-2-phenylindole (DAPI) and imaged on a Fluorescent Microscope.

[2] = target: hSTING (Homo sapiens, UniProt Q86WV6, H232R); assay: Summary of interaction of CXL with hSTING in vitro and in cellulo; conditions: read-out: EC50, first mode of interaction with hSTING
[3] = system: hSTING WT pathway (THP1 Dual KI-hSTING-R232 cells, IRF3 luciferase reporter)
Method: 2 Luciferase assay utilizing monocytic leukemia (THP-1) cells. Cells (Invivogen THP1 Dual KI-hSTING-R232; wild type) were analyzed for activation of the hSTING WT pathway via an IRF3 luciferase reporter. Luminescence is reported in relative luminescence units (RLU).
A study was performed to determine that five hundred thousand cells/mL was the optimal cell density. An optimization study was performed to determine the maximum DMSO percentage so as not to impact the viability of the cells. […] The chosen concentration was 4 μM. The cells were tested with lipofectamine and compared to wells prepared without lipofectamine.

[4] = system: hSTING WT pathway (THP1 Dual KI-hSTING-R232 cells, IRF3 luciferase reporter); assay: THP-1 IRF3 luciferase reporter assay, clonixeril as agonist
Method: 2 Luciferase assay utilizing monocytic leukemia (THP-1) cells. Cells (Invivogen THP1 Dual KI-hSTING-R232; wild type) were analyzed for activation of the hSTING WT pathway via an IRF3 luciferase reporter. Luminescence is reported in relative luminescence units (RLU). Error bars are SEM A. Dose–response of THP-1 cells treated with various concentrations of clonixeril (CXL); N = 6.
A 10 mM stock solution of CXL in 100% DMSO was diluted with ultrapure Milli Q water to make 3, 5, 10, 15, 20, 30, 40, 50 μM samples. The vehicle control contained blank cell medium treated with 0.1% DMSO. 20 μL sample/well of CXL or dilute DMSO (vehicle control) was added to a white, 300 μL, sterile 96 well plate. […] All samples contained a final DMSO concentration of 0.1%. […] The expression of Lucia luciferase was quantified by measuring the luminescence and evaluated in triplicate. Data are average luminescence changes shown as relative luminescence after subtraction of the background luminescence of vehicle-treated cells. A Glowmax luminometer with an injector was used for the measurement of luminescence in the luciferase assay. After the 10h incubation period, 20 μL/well of cell culture supernatant was transferred to a fresh well plate. A single injector added 50 μL of detection reagent per well, and immediately measured luminescence using a 4s incubation time integrated over 1 s.

[5] = system: IFN-β expression in HEK293 cells; assay: HEK293 real-time qPCR for IFN-β
Method: IFN-β expression levels were measured using real-time qPCR.
HEK293 cells were seeded at 700,000 cells per 60 mm plate confluency and treated 36 h later.

[6] = system: THP1 STING knockout cells; assay: STING knockout THP-1 luciferase assay; format: cell-based, human; conditions: WT-THP1 vs THP1 STING knockout cells
Excerpt: docking algorithm to properly calculate estimated free energies of binding for the LD-protein […]
Differential Scanning Fluorimetry – Thermal Shift Experiment […]
to the endogenous ligand, 2’,3’-cGAMP, 2) unbound and 3) bound to ligands chosen by the virtual screening process for their potential to stabilize the active form of the STING molecule by binding to it. A TSA measures a protein's melting temperature (Tm), at which the protein is 50% denatured. The assay quantifies protein denaturation by measuring the increase in fluorescence of a dye that binds to hydrophobic residues exposed by unfolding of the protein.
To determine clonixeril’s hydrolytic stability and evaluate its potential as an oral drug, an aqueous solution was concentrated for analysis at 20 µM. The sample was analyzed by HPLC using an […]
The UV spectra of these peaks were compared by diode array and found to be identical with maximum absorbance at 280nm and 343nm. […]
the minor first peak matched the molecular weight of clonixin (M+H)+ and the second major peak matched the molecular weight of clonixeril (M+H)+. […] Hydrolysis of clonixeril to clonixin was measured by HPLC over seven days using a 20 µM aqueous solution. […]
Figure S4. […] (D) Quantification of luciferase assay performed using WT-THP1 and THP1 STING knockout cells in the presence and absence of clonixeril and/or 2’,3’-cGAMP. […]

[7] = target: SUMO-hSTING CTD (Homo sapiens, UniProt Q86WV6, H232R); assay: Dynamic light scattering of STING oligomerization
Chain of SUMO-hSTING CTD (Q86WV6 155-343 H232R): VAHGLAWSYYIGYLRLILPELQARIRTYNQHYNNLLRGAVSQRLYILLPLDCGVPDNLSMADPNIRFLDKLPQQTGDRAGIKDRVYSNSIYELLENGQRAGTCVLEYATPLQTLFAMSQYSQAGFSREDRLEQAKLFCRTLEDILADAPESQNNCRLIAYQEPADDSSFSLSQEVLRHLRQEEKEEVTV
Method: (B) DLS was performed for 2 h (n = 960 measurements) with 50 nM STING exposed to analytes. […] Blue blocks indicate size counts as a percentage to overall mass over selected mass ranges. […] Measurements were made using a Malvern Zetasizer Nano ZS set to 40 measurements at 1 s/measurement and 24 runs.

Cc1c(Cl)cccc1Nc1ncccc1C(=O)OCC(O)CO (stereo not shown) [CXL, clonixeril]
p-hSTING and punctate structure formation ([1]; 1 pM CXL 1 h, then 2 μM 2′,3′-cGAMP 90 min): diminished
2′,3′-cGAMP induced p-hSTING puncta formation in the perinuclear region ([1]; 10 aM CXL): may affect
Levels of hSTING phosphorylation ([1]; 10 aM CXL): qualitatively unaffected
EC50 [2]: > 0.001 µM
Antagonism of hSTING pathway in luciferase reporter assay ([3]; compound 1 h, then 4 μM 2′,3′-cGAMP): inverse dose response; also recorded: antagonism of the hSTING^WT pathway
Concentration of maximum inhibition ([3]; reviewer's summary of IRF3 reporter assay): 100 aM
EC50 ([4]; Homo sapiens, THP1-Dual KI-hSTING-R232, read-out: EC50 (agonist activity), CXL alone, THP-1 cells, Figure 2A): ~19 µM
Agonist activity in luciferase reporter assay ([4]; compound alone): weak agonist activity
EC50 ([4]; read-out: EC50 (agonist activity), CXL alone, THP-1 cells, Figure 2A): 20 µM
Inhibition of IFN-b production ([5]; 1 fM, reviewer's reading of Figure 3D): about 75%
Diminution of 2′,3′-cGAMP-induced expression of IFN-β ([5]; all CXL treatment groups 1 fM-1 nM, 1 h before 4 μM 2′,3′-cGAMP): more than 50%
Pathway dependence of effect on pIRF3 production [6]: affecting pIRF3 production only through the STING pathway
Lowest concentration at which effect on oligomerization is observed ([7]; 50 nM STING, 50 nM 2′,3′-cGAMP): 100 aM
Reduction in 2′,3′-cGAMP driven SUMO-hSTING CTD oligomerization ([7]; 50 nM STING, 50 nM 2′,3′-cGAMP): alters the ability of SUMO-hSTING CTD to oligomerize
SUMO-hSTING CTD oligomerization without 2′,3′-cGAMP present ([7]; 50 nM STING, analyte alone): moderate amount of oligomerization
Size of protein aggregates ([7]; 100 aM, 50 nM STING CTD, reviewer's reading): about 75 nm
